Measurements published in patent US20240293391A1, “ISOQUINOLINE AND PYRIDINE BASED CXCR4 ANTAGONISTS” (Katholieke Universiteit Leuven, priority 2021, published 2024).

Tests used:
CXCR4 [1] = target: T1, CXCR4 (Homo sapiens, UniProt P61073); assay: CXCR4 calcium mobilization assay (CXCL12-induced, U87.CD4.CXCR4 cells, FLIPR); assay type: cell-based; settings: Concentration needed to inhibit CXCL12-induced calcium signaling by 50%
Protocol: (§1) First, the ability of the compounds to compete with fluorescently labeled CXCL12 (CXCL12^AF647) for binding at CXCR4 was determined. […] Finally, given the role of CXCR4 as a major coreceptor for HIV entry, the antiviral activity of the compounds against the X4-tropic wild type HIV-1 NL4-3 strain and the HIV-2 ROD strain was determined in MT-4 cells. In parallel, the cytotoxicity of the compounds for uninfected MT-4 cells was assessed.
The calcium mobilization assay has been described in detail previously [Claes et al. JoVE 2018, 132, 1-9]. U87.CD4.CXCR4 cells (2×10^4 cells per well in DMEM/10% FBS/0.01M HEPES) were seeded in gelatin-coated (Sigma-Aldrich; 0.1% gelatin in DPBS) black-walled 96-well plates and incubated overnight at 37° ° C. and 5% CO2. The next day, cells were loaded with the fluorescent calcium indicator Fluo-2 acetoxymethyl (AM) ester (4 μM; Abcam) and incubated at room temperature in the dark for 45 minutes. Then, cells were incubated with various concentrations of the compounds for 10 minutes prior to addition of 6.25 nM CXCL12 (in assay buffer). Fluctuations in intracellular calcium levels were measured in real time by the FLIPR Tetra® (Molecular Devices, Sunnyvale, CA, USA) in all 96 wells simultaneously. The response over baseline (after CXCL12 addition) was calculated with the ScreenWorks 4.0® software (Molecular Devices) by dividing the obtained relative light units (RLUs) through the base line measured just before CXCL12 addition. From this the IC50 value for each compound was determined taking into account the negative (i.e. untreated cells without CXCL12 stimulation) and positive (i.e. untreated cells with CXCL12 addition) control samples.

[2] = Cytotoxicity for mock-infected (uninfected) MT-4 cells; assay type: cell-based; settings: human, mock-infected (uninfected) MT-4 cells, Concentration required to reduce the viability of mock-infected MT4 cells by 50%
Protocol: (§2) First, the ability of the compounds to compete with fluorescently labeled CXCL12 (CXCL12^AF647) for binding at CXCR4 was determined. Secondly, since binding of CXCL12 to CXCR4 results into a transient increase of cytosolic calcium levels, the inhibition of this CXCL12-induced calcium mobilization by the various compounds was also investigated. […] In parallel, the cytotoxicity of the compounds for uninfected MT-4 cells was assessed. […] The anti-HIV assays in MT-4 cells been described in detail before [Hout et al. cited above; […] et al. AIDS 2004, 18, 2115-2125]. […] After five days, the cytopathic effect was checked microscopically and cell viability (i.e. viral replication) was evaluated using the MTS/PES-based CellTiter 96 Aqueous One Solution Cell Proliferation assay (Promega, Fitchburg, WI, USA). Absorbance was recorded using the VersaMax ELISATM microplate reader (Molecular Devices) and analyzed with the Softmax Pro® software (Molecular Devices).

HIV-1 NL4-3 = assay: Anti-HIV assay in MT-4 cells, HIV-1 NL4-3; assay type: cell-based; settings: Human immunodeficiency virus 1, NL43, MT4; Concentration required to achieve 50% protection of MT-4 cells against HIV-induced cytopathicity
Protocol: as §2

HIV-2 ROD = assay: Anti-HIV assay in MT-4 cells, HIV-2 ROD; assay type: cell-based; settings: Human immunodeficiency virus 2, MT4; Concentration required to achieve 50% protection of MT-4 cells against HIV-induced cytopathicity
Protocol: as §2

CXCR4 [3] = target: T1, CXCR4; assay: CXCR4 binding assay (competition with CXCL12^AF647 on Jurkat cells, flow cytometry); design: endogenous in cells; host or cells: Jurkat cells
Protocol: as §1
The CXCL12^AF647 binding assay with Jurkat cells has been described previously [Schoofs et al. JoVE 2018, 133, 1-8]. Briefly, Jurkat cells were resuspended in assay buffer [Hank's Balanced Salt Solution (HBSS, Thermo Fisher Scientific), 20 mM HEPES buffer, 0.2% bovine serum albumin (Sigma-Aldrich), pH 7.4] at 3×10^5 cells per sample and then treated with various concentrations of the compound at room temperature for 15 minutes. Afterwards, the cells were incubated with 2.9 nM CXCL12^AF647 (in assay buffer) at room temperature for 30 minutes in the dark. Cells were fixed in 1% paraformaldehyde in DPBS and specific CXCL12^AF647 binding [i.e. mean fluorescence intensity (MFI)] was quantified by flow cytometry (FACSArray™; Becton Dickinson). Data were analyzed with FlowJo® Software. The 50% inhibitory concentration (IC50) was calculated for each compound relative to the negative (i.e. autofluorescence of untreated and unlabeled cells) and positive (i.e. untreated cells exposed to CXCL12^AF647 only) control.

MT-4 cells = assay: Cytotoxicity for mock-infected (uninfected) MT-4 cells; assay type: cell-based
Protocol: as §2

[4] = Concentration needed to inhibit CXCL12 receptor binding by 50%, Jurkat cells, mean of at least two independent experiments, read-out: CXCR4 Binding IC50

T1 sequence (P61073 whole entry): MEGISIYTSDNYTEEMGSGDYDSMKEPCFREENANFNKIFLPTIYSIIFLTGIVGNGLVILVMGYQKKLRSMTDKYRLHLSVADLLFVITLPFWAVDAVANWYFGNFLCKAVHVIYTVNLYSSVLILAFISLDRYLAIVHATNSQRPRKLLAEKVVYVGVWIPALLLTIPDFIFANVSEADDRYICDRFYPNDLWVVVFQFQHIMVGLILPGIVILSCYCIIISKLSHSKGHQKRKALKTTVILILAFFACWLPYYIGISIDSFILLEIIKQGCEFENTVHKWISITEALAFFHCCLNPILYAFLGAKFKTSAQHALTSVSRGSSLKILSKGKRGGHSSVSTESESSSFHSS

Compound	IC50 (CXCR4 [1])	EC50 (HIV-1 NL4-3)	EC50 (HIV-2 ROD)	IC50 (CXCR4 [3]; [4])	IC50 (CXCR4 [3]; span over all assays (binding, calcium, HIV-1, HIV-2), read-out: IC50 values in all assays)	CC50 at 5 days [2]	cytotoxicity for the MT4 cell line (MT-4 cells)	CC50 (MT-4 cells; Concentration required to reduce the viability of mock-infected MT4 cells by 50%)
Cc1cccnc1CN(CCCCN)Cc1ccccn1 [Compound 25, N1-((3-Methylpyridin-2-yl)methyl)-N1-(pyridin-2-ylmethyl)butane-1,4-diamine]	180 nM	–	–	–	–	79800 nM	–	–
COc1ccc2c(CN(CCCCN)C3CCCc4cccnc43)nccc2c1 (stereo not shown) [Compound 19b, N1-((6-Methoxyisoquinolin-1-yl)methyl)-N1-(5,6,7,8-tetrahydroquinolin-8-yl)butane-1,4-diamine]	28 nM	–	–	0.25 nM	–	11100 nM	–	–
COc1cc2ccnc(CN(CCCCN)C3CCCc4cccnc43)c2cc1OC (stereo not shown) [Compound 19a, N1-((6,7-Dimethoxyisoquinolin-1-yl)methyl)-N1-(5,6,7,8-tetrahydroquinolin-8-yl) butane-1,4-diamine]	25 nM	–	–	7.2 nM	–	> 100000 nM	–	–
NCCCCN(Cc1nccc2cc(F)ccc12)C1CCCc2cccnc21 (stereo not shown) [Compound 19c, N1-((6-Fluoroisoquinolin-1-yl)methyl)-N1-(5,6,7,8-tetrahydroquinolin-8-yl)butane-1,4-diamine]	33 nM	–	–	8.9 nM	–	18100 nM	–	–
NCCCCN(Cc1nccc2ccccc12)C1CCCc2cccnc21 (stereo not shown) [Compound 19e, N1-(Isoquinolin-1-ylmethyl)-N1-(5,6,7,8-tetrahydroquinolin-8-yl)butane-1,4-diamine]	130 nM	–	–	9.2 nM	–	26700 nM	lack cytotoxicity	–
c1cc(CN2CCCNCCNCCCNCC2)ccc1CN1CCCNCCNCCCNCC1 [Plerixafor, reference compound]	–	–	–	–	–	6290 nM	–	–
NCCCCN(Cc1ccccn1)C1CCCc2cccnc21 (stereo not shown) [Compound 20, N1-(Pyridin-2-ylmethyl)-N1-(5,6,7,8-tetrahydroquinolin-8-yl)butane-1,4-diamine]	–	–	–	–	–	55400 nM	lack cytotoxicity	–
NCCCCN(Cc1nccc2cc(Br)ccc12)C1CCCc2cccnc21 (stereo not shown) [Compound 19d, N1-((6-Bromoisoquinolin-1-yl)methyl)-N1-(5,6,7,8-tetrahydroquinolin-8-yl)butane-1,4-diamine]	440 nM	–	–	26 nM	–	43600 nM	–	–

Second part, led by results:

IC50 (CXCR4 [1])	EC50 (HIV-1 NL4-3)	EC50 (HIV-2 ROD)	IC50 (CXCR4 [3]; [4])	IC50 (CXCR4 [3]; span over all assays (binding, calcium, HIV-1, HIV-2), read-out: IC50 values in all assays)	Compound	CC50 at 5 days [2]	cytotoxicity for the MT4 cell line (MT-4 cells)	CC50 (MT-4 cells; Concentration required to reduce the viability of mock-infected MT4 cells by 50%)
5 nM	18 nM	1.3 nM	2.3 nM	–	NCCCCN(Cc1nccc2ccccc12)c1cccc2cccnc12 [Compound 31c, N^1-(isoquinolin-1-ylmethyl)-N^1-(quinolin-8-yl)butane-1,4-diamine]	2980 nM	–	–
6.1 nM	–	–	0.64 nM	0.6 to 6 nM	Cc1cccnc1CN(CCCCN)Cc1nccc2cc(F)ccc12 [Compound 24c, N1-((6-Fluoroisoquinolin-1-yl)methyl)-N1-((3-methylpyridin-2-yl)methyl) butane-1,4-diamine]	31000 nM	lack cytotoxicity	30800 nM
> 50000 nM	> 41600 nM	> 41600 nM	> 100000 nM	–	NCCCCN(Cc1ccccc1)c1cccc2cccnc12 [Compound 31a, N^1-benzyl-N^1-(quinolin-8-yl)butane-1,4-diamine]	41600 nM	–	–
5500 nM	380 nM	> 9460 nM	36 nM	–	NCCCCN(Cc1ccccn1)c1cccc2cccnc12 [Compound 31b, N^1-(pyridin-2-ylmethyl)-N^1-(quinolin-8-yl)butane-1,4-diamine]	9460 nM	–	–
690 nM	–	–	39 nM	–	Cc1cccnc1CN(CCCCN)Cc1nccc2cc(Br)ccc12 [Compound 24d, N1-((6-Bromoisoquinolin-1-yl)methyl)-N1-((3-methylpyridin-2-yl)methyl) butane-1,4-diamine]	29500 nM	–	–
3850 nM	–	–	890 nM	–	COc1ccc2c(CN(CCCCN)Cc3ncccc3C)nccc2c1 [Compound 24b, N1-((6-Methoxyisoquinolin-1-yl)methyl)-N1-((3-methylpyridin-2-yl)methyl) butane-1,4-diamine]	9270 nM	–	–
13 nM	–	–	3.2 nM	–	COc1cc2ccnc(CN(CCCCN)Cc3ncccc3C)c2cc1OC [Compound 24a, N1-((6,7-dimethoxyisoquinolin-1-yl)methyl)-N1-((3-methylpyridin-2-yl)methyl) butane-1,4-diamine]	> 100000 nM	lack cytotoxicity	–
